# Experimental data taken from US8501766B2, “Treatment of rheumatoid arthritis with a combination of laquinimod and methotrexate” (Teva Pharmaceutical Industries Ltd., priority 2010, dated 2013).
# Tests used:
# Type in all cases: in vivo, male DBA/1OlaHsd mice
# [1] = test system: serum anti-type II collagen antibody; test: Serum anti-type II collagen antibody levels in mouse type II collagen arthritis; conditions: vs vehicle controls
# Protocol: Mice were terminated on day 34. […] Evaluation of serum anti-type II collagen antibody levels were also performed (groups 1-3, 6 and 8 only). […] At necropsy, animals from all groups were bled via cardiac puncture for serum and terminated via cervical dislocation. […] Whole blood was allowed to clot at room temperature for approximately 2 hours before being spun at 13,000 rpm for 8 minutes. • 10. […] Histopathologic Scoring Methods for Mouse Joints with Type II Collagen Arthritis Serum analysis for anti-TTC levels was performed on mice from groups 1-3, 6, and 8 only.
# [2] = test system: semi-established type II collagen arthritis; test: Histopathology of fore paws, hind paws and knees in mouse type II collagen arthritis; conditions: vs vehicle controls; for Paw histopathology, reduction of summed scores: 4 paws; for Six-joint mean histopathology, reduction of summed scores: four paws and two knees
# Protocol: Mice were terminated on day 34. […] Evaluation of serum anti-type II collagen antibody levels were also performed (groups 1-3, 6 and 8 only). All animals survived to study termination. • 8. On days 21-35, onset of arthritis occurred. Mice were weighed on arthritis days 18, 20, 22, 24, 26, 28, 30, 32, and prior to tissue collection on day 34 (final day). • 9. At necropsy, animals from all groups were bled via cardiac puncture for serum and terminated via cervical dislocation. Fore paws, hind paws and knees were removed and placed in 10% NBF. Whole blood was allowed to clot at room temperature for approximately 2 hours before being spun at 13,000 rpm for 8 minutes. • 10. Processing of Joints: Following 1-2 days in fixative and then 4-5 days in decalcifier, the joints were processed, embedded, sectioned and stained with toluidine blue and H&E (2 slides per animal). Only fore and hind paws and knees were processed initially (6 joints/mouse). • 11. Morphologic Pathology Methods: […] Hind paws, fore paws, and knees were embedded and sectioned in the frontal plane. Six joints from each animal were processed for histopathology elevation. • 12. Tissue Processing and Evaluation: • a. place joints in decalcifier, • b. trim joints, wash, process tissues, • c. embed joints, • d. section tissues, stain tissues, • e. histopathologic evaluation, and • f. data processing, QC, prepare graphs and report. Histopathologic Scoring Methods for Mouse Joints with Type II Collagen Arthritis When scoring paws or ankles from mice with lesions of type II collagen arthritis, severity of changes as well as number of individual joints affected must be considered. When only 1-3 joints of the paws or ankles out of a possibility of numerous metacarpal/metatarsal/digit or tarsal/tibiotarsal joints were affected, an arbitrary assignment of a maximum score of 1, 2 or 3 for parameters below (Tables 3-6) was given depending on severity of changes. If more than 3 joints were involved, the criteria below (Tables 3-6) were applied to the most severely affected/majority of joints. [table] [table] [table] [table] For each animal, the inflammation, pannus, cartilage damage and bone damage scores was determined for each of the 6 joints submitted. A sum total (all 6 joints) animal score and a six joint mean animal score was determined as well as sums and means for each of the individual parameters. Data were also expressed as means for paws (4 joints) or knees (2 joints). Parameters for the various groups are then compared to disease control animals. Clinical data for paw scores (means for animal) were analyzed by determining the area under the dosing curve (AUC) for study days 18-34. For calculation of AUC, the daily mean scores for each mouse were entered into Microsoft Excel and the area between the treatment days after the onset of disease to the final day was computed. Means for each group were determined and the percent inhibition from arthritis controls was calculated by comparing values for treated and normal animals.
# [3] = test system: semi-established type II collagen arthritis; test: 35 day mouse semi-established type II collagen arthritis: body weight, disease incidence, clinical arthritis scores and AUC; conditions: for Reduction of clinical arthritis scores expressed as area under the curve (AUC): days 18-34; for Reduction of clinical arthritis scores expressed as area under the curve (AUC) / Daily clinical arthritis scores: vs vehicle controls
# Protocol: Mouse type II collagen arthritis is an art-recognized animal model for rheumatoid arthritis in humans (Bendele, 2001). […] Mice were terminated on day 34. […] Evaluation of serum anti-type II collagen antibody levels were also performed (groups 1-3, 6 and 8 only). All animals survived to study termination. • 1. […] Mice were anesthetized with Isoflurane and given 150 μl of Bovine Type II collagen in Freund's complete adjuvant injections (Sigma) containing bovine type II collagen (Elastin Products, Owensville, Mo.) (2 mg/ml) at the base of the tail (D0 and day 21). • 3. Mice were randomized by body weight into treatment groups on study day 18. • 4. MTX was provided by Bolder BioPATH, Inc. as a 1 mg/ml stock solution purchased from MWI and was prepared as a 0.05 mg/ml solution in 1% CMC for dosing at 10 ml/kg. • 5. All dose solutions were prepared to deliver at 10 ml/kg (0.3 ml/30 g) mouse. • 6. Treatment is initiated on study day 18 and continued once daily, every day (po, qd) according to Table 1. [table] • 7. During the period of treatment, clinical scores were given for each of the paws (right front, left front, right rear, left rear) according to Table 2. [table] • 8. On days 21-35, onset of arthritis occurred. Mice were weighed on arthritis days 18, 20, 22, 24, 26, 28, 30, 32, and prior to tissue collection on day 34 (final day). • 9. At necropsy, animals from all groups were bled via cardiac puncture for serum and terminated via cervical dislocation. Fore paws, hind paws and knees were removed and placed in 10% NBF. Whole blood was allowed to clot at room temperature for approximately 2 hours before being spun at 13,000 rpm for 8 minutes. • 10. Processing of Joints: Following 1-2 days in fixative and then 4-5 days in decalcifier, the joints were processed, embedded, sectioned and stained with toluidine blue and H&E (2 slides per animal). Only fore and hind paws and knees were processed initially (6 joints/mouse). • 11. Morphologic Pathology Methods: […] Hind paws, fore paws, and knees were embedded and sectioned in the frontal plane. Six joints from each animal were processed for histopathology elevation. • 12. Tissue Processing and Evaluation: • a. place joints in decalcifier, • b. trim joints, wash, process tissues, • c. embed joints, • d. section tissues, stain tissues, • e. histopathologic evaluation, and • f. data processing, QC, prepare graphs and report. Histopathologic Scoring Methods for Mouse Joints with Type II Collagen Arthritis Clinical data for paw scores (means for animal) were analyzed by determining the area under the dosing curve (AUC) for study days 18-34. For calculation of AUC, the daily mean scores for each mouse were entered into Microsoft Excel and the area between the treatment days after the onset of disease to the final day was computed. Means for each group were determined and the percent inhibition from arthritis controls was calculated by comparing values for treated and normal animals. […] Percent inhibition of clinical parameters and AUC is calculated using the following formula: % Inhibition=[…], where A=Mean Disease Control−Mean Normal • B=Mean Treated−Mean Normal Results
smiles,measurement,setting,value
CCN(C(=O)c1c(O)c2c(Cl)cccc2n(C)c1=O)c1ccccc1 [Laquinimod],Serum Anti-TTC level,[1]; 5 mg/kg Laquinimod po QD,not significantly affected
same,"Paw histopathology, reduction of summed scores",[2]; 1 mg/kg Laquinimod po QD,61%
same,"Six-joint mean histopathology, reduction of summed scores",[2]; 1 mg/kg Laquinimod po QD,60%
same,Reduction of knee cartilage damage,[2]; 1 mg/kg Laquinimod po QD,62%
same,Reduction of knee inflammation,[2]; 1 mg/kg Laquinimod po QD,51%
same,Reduction of knee pannus,[2]; 1 mg/kg Laquinimod po QD,59%
same,Reduction of summed knee scores,[2]; 1 mg/kg Laquinimod po QD,57%
same,Disease incidence,"[3]; 0.2 mg/kg Laquinimod po QD, by study day 28",100%
same,Daily clinical arthritis scores prior to disease occurrence in the vehicle control group,"[3]; 0.2 mg/kg Laquinimod po QD, d23",significantly elevated
same,Reduction of clinical arthritis scores expressed as area under the curve (AUC),[3]; 0.2 mg/kg Laquinimod po QD,32%
same,Daily clinical arthritis scores,"[3]; 0.2 mg/kg Laquinimod po QD, significant d28-34",significantly reduced
same,Disease incidence,"[3]; 1 mg/kg Laquinimod po QD, at study termination",90%
same,Daily clinical arthritis scores prior to disease occurrence in the vehicle control group,"[3]; 1 mg/kg Laquinimod po QD, d22-24",significantly elevated
same,Reduction of clinical arthritis scores expressed as area under the curve (AUC),[3]; 1 mg/kg Laquinimod po QD,52%
same,Daily clinical arthritis scores,"[3]; 1 mg/kg Laquinimod po QD, significant d25-34",significantly reduced
same,Disease incidence,[3]; 5 mg/kg Laquinimod po QD,70%
same,Daily clinical arthritis scores prior to disease occurrence in the vehicle control group,"[3]; 5 mg/kg Laquinimod po QD, d22-23",significantly elevated
same,Reduction of clinical arthritis scores expressed as area under the curve (AUC),[3]; 5 mg/kg Laquinimod po QD,69%
same,Daily clinical arthritis scores,"[3]; 5 mg/kg Laquinimod po QD, significant d24-34",significantly reduced
"CN(Cc1cnc2nc(N)nc(N)c2n1)c1ccc(C(=O)N[C@@H](CCC(=O)O)C(=O)O)cc1 [MTX, Methotrexate]",Serum Anti-TTC level,[1]; MTX 0.5 mg/kg po QD,not significantly affected
same,"Paw histopathology, reduction of summed scores",[2]; MTX 0.5 mg/kg po QD,46%
same,"Six-joint mean histopathology, reduction of summed scores",[2]; MTX 0.5 mg/kg po QD,43%
same,Disease incidence,"[3]; MTX 0.5 mg/kg po QD, at study termination",90%
same,Reduction of clinical arthritis scores expressed as area under the curve (AUC),[3]; MTX 0.5 mg/kg po QD,50%
same,Daily clinical arthritis scores,"[3]; MTX 0.5 mg/kg po QD, significant days 27-34",significantly reduced
